Source: PubChem BioAssay (NCI)
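Assay format: 96-well plates, 48-hour exposure. At the TGI there is no net growth.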

How the values were obtained:
Experiment in all cases: growth of human tumour cells (NCI), 48 h
[1] = system: 786-0 renal
[2] = system: A498 renal
[3] = system: A549 NSCLC
[4] = system: ACHN renal
[5] = system: CAKI-1 renal
[6] = system: CCRF-CEM leukemia
[7] = system: COLO 205 colon
[8] = system: DLD-1 colon
[9] = system: DMS 273 small cell lung
[10] = system: EKVX NSCLC
[11] = system: HCC-2998 colon
[12] = system: HCT-116 colon
[13] = system: HL-60(TB) leukemia
[14] = system: HOP-18 NSCLC
[15] = system: HOP-62 NSCLC
[16] = system: HT29 colon
[17] = system: IGROV1 ovarian
[18] = system: K-562 leukemia
[19] = system: KM12 colon
[20] = system: KM20L2 colon
[21] = system: LOX IMVI melanoma
[22] = system: LXFL 529 NSCLC
[23] = system: M14 melanoma
[24] = system: M19-MEL melanoma
[25] = system: MALME-3M melanoma
[26] = system: MOLT-4 leukemia
[27] = system: NCI-H226 lung
[28] = system: NCI-H23 lung
[29] = system: NCI-H460 lung
[30] = system: NCI-H522 lung
[31] = system: OVCAR-3 ovarian
[32] = system: OVCAR-4 ovarian
[33] = system: OVCAR-5 ovarian
[34] = system: OVCAR-8 ovarian
[35] = system: RXF 393 renal
[36] = system: RXF-631 renal
[37] = system: SF-268 CNS
[38] = system: SF-295 CNS
[39] = system: SF-539 CNS
[40] = system: SK-MEL-2 melanoma
[41] = system: SK-MEL-28 melanoma
[42] = system: SK-MEL-5 melanoma
[43] = system: SK-OV-3 ovarian
[44] = system: SN12C renal
[45] = system: SNB-19 CNS
[46] = system: SNB-75 CNS
[47] = system: SNB-78 CNS
[48] = system: SR leukemia
[49] = system: SW-620 colon
[50] = system: TK-10 renal
[51] = system: U251 CNS
[52] = system: UACC-257 melanoma
[53] = system: UACC-62 melanoma
[54] = system: UO-31 renal
[55] = system: XF 498 CNS
[56] = system: DMS 114 small cell lung
[57] = system: HCT-15 colon
[58] = system: HOP-92 NSCLC
[59] = system: RPMI-8226 leukemia

## FC(F)(F)c1cccc2ns[s+]c12
[1]
  TGI: > 100 µM
[2]
  TGI: > 100 µM
[3]
  TGI: > 100 µM
[4]
  TGI: > 100 µM
[5]
  TGI: > 100 µM
[6]
  TGI: > 100 µM
[7]
  TGI: > 100 µM
[8]
  TGI: > 100 µM
[9]
  TGI: > 100 µM
[10]
  TGI: > 100 µM
[11]
  TGI: > 100 µM
[12]
  TGI: > 100 µM
[13]
  TGI: > 100 µM
[14]
  TGI: > 100 µM
[15]
  TGI: > 100 µM
[16]
  TGI: > 100 µM
[17]
  TGI: > 100 µM
[18]
  TGI: > 100 µM
[19]
  TGI: > 100 µM
[20]
  TGI: > 100 µM
[21]
  TGI: > 100 µM
[22]
  TGI: > 100 µM
[23]
  TGI: > 100 µM
[24]
  TGI: > 100 µM
[25]
  TGI: > 100 µM
[26]
  TGI: > 100 µM
[27]
  TGI: > 100 µM
[28]
  TGI: > 100 µM
[29]
  TGI: > 100 µM
[30]
  TGI: > 100 µM
[31]
  TGI: > 100 µM
[32]
  TGI: > 100 µM
[33]
  TGI: > 100 µM
[34]
  TGI: > 100 µM
[35]
  TGI: > 100 µM
[36]
  TGI: > 100 µM
[37]
  TGI: > 100 µM
[38]
  TGI: > 100 µM
[39]
  TGI: > 100 µM
[40]
  TGI: > 100 µM
[41]
  TGI: > 100 µM
[42]
  TGI: > 100 µM
[43]
  TGI: > 100 µM
[44]
  TGI: > 100 µM
[45]
  TGI: > 100 µM
[46]
  TGI: > 100 µM
[47]
  TGI: > 100 µM
[48]
  TGI: > 100 µM
[49]
  TGI: > 100 µM
[50]
  TGI: > 100 µM
[51]
  TGI: > 100 µM
[52]
  TGI: > 100 µM
[53]
  TGI: > 100 µM
[54]
  TGI: > 100 µM
[55]
  TGI: > 100 µM

## CCC1(O)C(=O)OCc2c1cc1n(c2=O)Cc2cc3ccc(CO)cc3nc2-1 (configuration not stated)
[1]
  TGI: 7.51 µM
[2]
  TGI: 24.5 µM
[3]
  TGI: > 100 µM
[4]
  TGI: 11 µM
[5]
  TGI: 23.5 µM
[6]
  TGI: 0.987 µM
[7]
  TGI: 52.3 µM
[8]
  TGI: > 100 µM
[56]
  TGI: > 100 µM
[9]
  TGI: 11.1 µM
[10]
  TGI: > 100 µM
[11]
  TGI: > 80.2 µM
[12]
  TGI: 31.1 µM
[57]
  TGI: > 100 µM
[13]
  TGI: > 27 µM
[14]
  TGI: > 93.9 µM
[15]
  TGI: 2.56 µM
[58]
  TGI: > 87.3 µM
[16]
  TGI: > 81.4 µM
[17]
  TGI: > 77.4 µM
[18]
  TGI: > 100 µM
[19]
  TGI: > 100 µM
[20]
  TGI: > 69.9 µM
[21]
  TGI: 12.5 µM
[22]
  TGI: > 100 µM
[23]
  TGI: 33.1 µM
[24]
  TGI: 54 µM
[25]
  TGI: 59.9 µM
[27]
  TGI: 6.58 µM
[28]
  TGI: 10.2 µM
[29]
  TGI: 22.5 µM
[30]
  TGI: 26.8 µM
[31]
  TGI: 24.4 µM
[32]
  TGI: > 100 µM
[33]
  TGI: 78.5 µM
[34]
  TGI: > 41.3 µM
[59]
  TGI: > 37.3 µM
[35]
  TGI: > 44 µM
[36]
  TGI: > 100 µM
[37]
  TGI: > 100 µM
[38]
  TGI: > 79.3 µM
[39]
  TGI: 4.51 µM
[40]
  TGI: 64.5 µM
[41]
  TGI: > 100 µM
[42]
  TGI: 11.3 µM
[43]
  TGI: > 100 µM
[44]
  TGI: > 28.8 µM
[45]
  TGI: > 100 µM
[46]
  TGI: 9.77 µM
[48]
  TGI: 0.298 µM
[49]
  TGI: > 100 µM
[50]
  TGI: > 100 µM
[51]
  TGI: 5.04 µM
[52]
  TGI: > 100 µM
[53]
  TGI: 7.34 µM
[54]
  TGI: 17 µM
[55]
  TGI: 16.8 µM
